1 compound from publication PMC7206119, “RIP1 inhibition blocks inflammatory diseases but not tumor growth or metastases” (Cell Death and Differentiation, 2019) can be followed below.

Assay in all cases: biochemical
Common to all, as to set-up: Thermo Fisher SelectScreen kinase panel: Z'-LYTE and Adapta activity, LanthaScreen binding
(TR-FRET usually uses a lanthanide donor and a delayed reading to cut background.)

The target in test [1] is T1, ASK1 (Homo sapiens, UniProt Q99683).
T1 construct: gene MAP3K5
An outline of the steps:
(§1)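 GNE684 profiled at 10 µM across 221 kinases with Z'-LYTE and Adapta activity and LanthaScreen binding formats. Also screened at 10 µM against 468 kinases in KINOMEscan scanMAX binding assay.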

Test [2] concerns the target T2, BRK (Homo sapiens, UniProt Q13882).
T2 construct: gene PTK6
A digest of the protocol:
as §1

Test [3] deals with CDK8/cyclinC (Homo sapiens, UniProt P49336). An outline of the steps: as §1
Test [4] has as its target CDK9/cyclinT1 (Homo sapiens, UniProt P50750). A digest of the protocol: as §1
Test [5] has as its target T3, CK1_gamma2 (Homo sapiens, UniProt P78368).
T3 construct: gene CSNK1G2
A digest of the protocol:
as §1

The target in test [6] is CSF1R (Homo sapiens, UniProt P07333). An outline of the steps: as §1
For test [7], the target named is T4, DNA-PK (Homo sapiens, UniProt P78527).
T4 construct: gene PRKDC
An outline of the steps:
as §1

For test [8], the target named is EPHA7 (Homo sapiens, UniProt Q15375). An outline of the steps:
as §1

In test [9] the target is ERBB4 (Homo sapiens, UniProt Q15303). An outline of the steps:
as §1

Test [10] addresses IGF1R (Homo sapiens, UniProt P08069). An outline of the steps: as §1
For test [11], the target named is T5, KHS1 (Homo sapiens, UniProt Q9Y4K4).
T5 construct: gene MAP4K5
A digest of the protocol:
as §1

Test [12] concerns the target MARK1 (Homo sapiens, UniProt Q9P0L2). An outline of the steps: as §1
Test [13] concerns the target T6, MKK6 (Homo sapiens, UniProt P52564).
T6 construct: gene MAP2K6
An outline of the steps:
as §1

For test [14], the target named is T7, MLK1 (Homo sapiens, UniProt P80192).
T7 construct: gene MAP3K9
An outline of the steps:
as §1

In test [15] the target is T8, MSSK1 (Homo sapiens, UniProt Q9UPE1).
T8 construct: gene SRPK3
An outline of the steps:
as §1

Test [16] has as its target T9, PKC_beta1 (Homo sapiens, UniProt P05771).
T9 construct: gene PRKCB; isoform beta I
An outline of the steps:
as §1

The target in test [17] is T10, PRK1 (Homo sapiens, UniProt Q16512).
T10 construct: gene PKN1
A digest of the protocol:
as §1

Test [18] deals with RIPK2 (Homo sapiens, UniProt O43353). An outline of the steps:
as §1

Test [19] has as its target SGK2 (Homo sapiens, UniProt Q9HBY8). An outline of the steps:
as §1

The target of test [20] is SGK3 (Homo sapiens, UniProt Q96BR1). An outline of the steps:
as §1

For test [21], the target named is T11, TIE2 (Homo sapiens, UniProt Q02763).
T11 construct: gene TEK
An outline of the steps: as §1

Test [22] concerns the target T12, TRKA (Homo sapiens, UniProt P04629).
T12 construct: gene NTRK1
A digest of the protocol: as §1

Test [23] has as its target T13, p38-gamma (Homo sapiens, UniProt P53778).
T13 construct: gene MAPK12
A digest of the protocol:
as §1

As a reminder, the inhibition is the change of the read-out against control, counted positive when it falls.

Each structure is given as a SMILES string.

ERBB4, sequence (Q15303 whole entry): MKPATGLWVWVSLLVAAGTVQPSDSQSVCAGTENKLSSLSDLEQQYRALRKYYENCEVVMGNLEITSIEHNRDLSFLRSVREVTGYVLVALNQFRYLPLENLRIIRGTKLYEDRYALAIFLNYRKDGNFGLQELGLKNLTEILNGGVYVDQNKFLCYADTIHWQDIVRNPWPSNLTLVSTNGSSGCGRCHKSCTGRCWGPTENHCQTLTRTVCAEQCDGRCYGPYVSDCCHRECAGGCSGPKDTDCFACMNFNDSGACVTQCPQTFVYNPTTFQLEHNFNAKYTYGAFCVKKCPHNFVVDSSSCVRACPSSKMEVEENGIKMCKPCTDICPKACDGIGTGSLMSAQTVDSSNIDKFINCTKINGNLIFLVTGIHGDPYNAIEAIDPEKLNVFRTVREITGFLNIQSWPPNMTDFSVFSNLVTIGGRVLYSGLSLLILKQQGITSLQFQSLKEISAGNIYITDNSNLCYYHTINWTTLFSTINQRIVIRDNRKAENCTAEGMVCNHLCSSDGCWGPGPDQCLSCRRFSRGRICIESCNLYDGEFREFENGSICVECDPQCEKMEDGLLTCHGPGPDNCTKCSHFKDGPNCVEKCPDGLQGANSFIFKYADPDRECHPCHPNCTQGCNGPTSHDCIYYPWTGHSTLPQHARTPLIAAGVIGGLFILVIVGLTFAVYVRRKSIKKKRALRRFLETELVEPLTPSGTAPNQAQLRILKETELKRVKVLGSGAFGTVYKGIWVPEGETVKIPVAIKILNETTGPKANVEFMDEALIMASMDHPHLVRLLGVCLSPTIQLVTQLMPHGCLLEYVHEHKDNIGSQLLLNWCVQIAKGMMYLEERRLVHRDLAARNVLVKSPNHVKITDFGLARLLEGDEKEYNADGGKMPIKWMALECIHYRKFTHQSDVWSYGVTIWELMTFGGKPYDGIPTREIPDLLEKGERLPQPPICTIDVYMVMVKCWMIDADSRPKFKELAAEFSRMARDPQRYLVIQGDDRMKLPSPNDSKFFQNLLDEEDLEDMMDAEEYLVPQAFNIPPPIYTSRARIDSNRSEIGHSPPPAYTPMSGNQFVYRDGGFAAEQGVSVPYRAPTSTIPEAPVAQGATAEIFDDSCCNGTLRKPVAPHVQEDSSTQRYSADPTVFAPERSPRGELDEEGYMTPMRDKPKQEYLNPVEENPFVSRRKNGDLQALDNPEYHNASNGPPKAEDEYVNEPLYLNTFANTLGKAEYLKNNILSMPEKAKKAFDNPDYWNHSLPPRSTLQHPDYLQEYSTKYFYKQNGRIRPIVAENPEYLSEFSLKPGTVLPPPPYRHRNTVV
T13 sequence (P53778 whole entry): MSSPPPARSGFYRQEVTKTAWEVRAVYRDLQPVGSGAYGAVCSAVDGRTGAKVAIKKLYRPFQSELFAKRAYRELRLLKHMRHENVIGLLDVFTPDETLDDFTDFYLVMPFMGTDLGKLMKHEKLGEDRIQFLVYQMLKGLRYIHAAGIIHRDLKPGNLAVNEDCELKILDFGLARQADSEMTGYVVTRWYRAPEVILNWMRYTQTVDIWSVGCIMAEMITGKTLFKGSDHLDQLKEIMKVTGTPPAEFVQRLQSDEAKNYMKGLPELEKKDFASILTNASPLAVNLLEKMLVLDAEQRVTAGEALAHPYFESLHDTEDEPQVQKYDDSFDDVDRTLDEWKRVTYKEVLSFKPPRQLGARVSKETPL
T6 sequence (P52564 whole entry): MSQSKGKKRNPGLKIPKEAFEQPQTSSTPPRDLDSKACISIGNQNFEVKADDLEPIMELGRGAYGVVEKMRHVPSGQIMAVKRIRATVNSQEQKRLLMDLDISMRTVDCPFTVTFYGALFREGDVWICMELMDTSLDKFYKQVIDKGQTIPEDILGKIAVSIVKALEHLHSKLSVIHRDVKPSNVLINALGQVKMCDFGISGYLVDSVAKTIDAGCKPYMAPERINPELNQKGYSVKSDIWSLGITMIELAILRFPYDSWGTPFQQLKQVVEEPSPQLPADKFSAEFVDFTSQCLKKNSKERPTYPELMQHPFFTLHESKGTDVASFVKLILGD
T9 sequence (P05771 whole entry, canonical isoform): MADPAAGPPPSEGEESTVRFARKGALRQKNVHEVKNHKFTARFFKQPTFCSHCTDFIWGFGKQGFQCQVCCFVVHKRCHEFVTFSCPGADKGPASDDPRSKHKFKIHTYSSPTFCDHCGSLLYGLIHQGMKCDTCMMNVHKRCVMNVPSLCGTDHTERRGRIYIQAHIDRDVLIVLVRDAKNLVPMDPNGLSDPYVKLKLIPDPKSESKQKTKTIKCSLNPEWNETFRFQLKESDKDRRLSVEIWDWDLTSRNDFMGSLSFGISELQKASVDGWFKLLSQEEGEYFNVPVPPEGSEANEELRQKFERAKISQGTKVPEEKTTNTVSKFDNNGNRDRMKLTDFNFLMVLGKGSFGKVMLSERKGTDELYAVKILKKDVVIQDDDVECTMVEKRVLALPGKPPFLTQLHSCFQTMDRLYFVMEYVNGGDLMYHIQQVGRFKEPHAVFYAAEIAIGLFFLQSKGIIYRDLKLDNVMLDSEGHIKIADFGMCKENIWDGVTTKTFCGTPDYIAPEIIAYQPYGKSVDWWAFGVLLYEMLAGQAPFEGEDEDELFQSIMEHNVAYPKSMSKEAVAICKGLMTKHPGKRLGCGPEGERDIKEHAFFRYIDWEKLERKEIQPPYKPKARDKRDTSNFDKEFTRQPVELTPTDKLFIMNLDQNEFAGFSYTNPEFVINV
CSF1R, sequence (P07333 whole entry): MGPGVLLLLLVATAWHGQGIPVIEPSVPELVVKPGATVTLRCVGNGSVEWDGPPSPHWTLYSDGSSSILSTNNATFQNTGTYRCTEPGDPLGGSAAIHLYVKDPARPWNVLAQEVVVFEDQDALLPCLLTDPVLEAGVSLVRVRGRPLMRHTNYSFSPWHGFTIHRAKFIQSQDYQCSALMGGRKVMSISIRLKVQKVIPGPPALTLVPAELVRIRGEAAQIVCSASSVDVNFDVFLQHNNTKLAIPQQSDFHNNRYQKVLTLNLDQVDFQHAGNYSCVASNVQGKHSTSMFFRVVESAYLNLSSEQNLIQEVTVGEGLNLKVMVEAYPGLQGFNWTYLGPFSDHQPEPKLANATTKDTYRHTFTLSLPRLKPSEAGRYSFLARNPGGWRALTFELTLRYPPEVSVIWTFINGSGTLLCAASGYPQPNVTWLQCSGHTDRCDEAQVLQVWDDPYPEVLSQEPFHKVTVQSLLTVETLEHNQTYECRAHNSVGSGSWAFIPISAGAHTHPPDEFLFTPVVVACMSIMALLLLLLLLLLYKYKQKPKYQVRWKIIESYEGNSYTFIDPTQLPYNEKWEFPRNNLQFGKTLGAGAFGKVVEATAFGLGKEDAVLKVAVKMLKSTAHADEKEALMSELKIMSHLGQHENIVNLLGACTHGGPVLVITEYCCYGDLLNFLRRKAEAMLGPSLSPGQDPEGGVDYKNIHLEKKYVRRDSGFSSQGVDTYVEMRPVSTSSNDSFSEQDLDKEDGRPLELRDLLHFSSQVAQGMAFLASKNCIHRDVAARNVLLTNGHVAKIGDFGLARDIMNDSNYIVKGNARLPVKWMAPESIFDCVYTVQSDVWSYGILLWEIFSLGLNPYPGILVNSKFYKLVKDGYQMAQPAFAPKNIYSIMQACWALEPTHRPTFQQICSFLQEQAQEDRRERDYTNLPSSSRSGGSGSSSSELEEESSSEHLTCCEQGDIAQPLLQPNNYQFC
T11 sequence (Q02763 whole entry): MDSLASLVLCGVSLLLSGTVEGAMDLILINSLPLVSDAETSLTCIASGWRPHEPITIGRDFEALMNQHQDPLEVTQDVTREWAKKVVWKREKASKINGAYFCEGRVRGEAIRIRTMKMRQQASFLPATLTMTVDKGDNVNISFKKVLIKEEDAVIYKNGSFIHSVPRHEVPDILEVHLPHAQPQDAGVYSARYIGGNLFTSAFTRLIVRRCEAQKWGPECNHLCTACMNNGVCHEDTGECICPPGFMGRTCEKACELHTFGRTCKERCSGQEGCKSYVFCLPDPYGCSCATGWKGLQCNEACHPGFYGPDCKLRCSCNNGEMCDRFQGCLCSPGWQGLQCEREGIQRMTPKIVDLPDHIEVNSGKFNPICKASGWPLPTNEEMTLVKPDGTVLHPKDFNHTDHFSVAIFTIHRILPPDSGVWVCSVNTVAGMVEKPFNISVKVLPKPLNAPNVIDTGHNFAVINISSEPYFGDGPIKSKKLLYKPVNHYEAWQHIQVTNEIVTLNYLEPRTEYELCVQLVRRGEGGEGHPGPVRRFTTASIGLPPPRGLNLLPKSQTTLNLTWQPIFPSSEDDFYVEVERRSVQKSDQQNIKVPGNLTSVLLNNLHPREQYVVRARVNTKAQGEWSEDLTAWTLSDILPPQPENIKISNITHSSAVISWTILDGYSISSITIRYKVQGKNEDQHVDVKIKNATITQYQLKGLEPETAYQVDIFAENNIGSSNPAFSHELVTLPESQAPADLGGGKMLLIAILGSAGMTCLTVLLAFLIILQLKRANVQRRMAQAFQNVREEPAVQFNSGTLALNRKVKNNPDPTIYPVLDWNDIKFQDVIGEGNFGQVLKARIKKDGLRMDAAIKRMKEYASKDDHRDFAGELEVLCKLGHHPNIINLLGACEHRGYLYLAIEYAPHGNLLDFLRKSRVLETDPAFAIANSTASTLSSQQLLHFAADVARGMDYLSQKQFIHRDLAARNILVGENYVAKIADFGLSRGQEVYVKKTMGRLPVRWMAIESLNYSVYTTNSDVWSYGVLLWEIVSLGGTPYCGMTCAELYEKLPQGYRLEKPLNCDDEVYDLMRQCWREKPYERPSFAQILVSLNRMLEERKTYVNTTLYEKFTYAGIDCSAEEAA

In the case of `COc1cc2c(cn1)N(C)C(=O)[C@@H](NC(=O)c1nc3n(n1)[C@H](c1ccccc1)CC3)CC2` [GNE684, (S)-N-((S)-7-methoxy-1-methyl-2-oxo-2,3,4,5-tetrahydro-1H-pyrido[3,4-b]azepin-3-yl)-5-phenyl-6,7-dihydro-5H-pyrrolo[1,2-b][1,2,4]triazole-2-carboxamide], the inhibition at 10 µM is 4% in [1]; -1% in [2]; 4.5% in [3]; 9% in [4]; 2% in test [5]; 2% in test [6]. Further, the inhibition at 10 µM in test [7] is 4%; in test [8] it was -4%; in test [9] it was 4%; in test [10], 5%; in test [11] it was 12%; in test [12] it was 6.5%. The inhibition at 10 µM is -4.5% in [13]; 7.5% in [14]; 2.5% in test [15]; 3.5% in test [16]; 2.5% in [17]; 2% in [18]. For the same compound, the inhibition at 10 µM in test [19] was 5.5%; in [20], 1.5%; in test [21], -4.5%; in test [22], -3%; in [23] it was 7%.
